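Assay format: 96-well plates, 48-hour exposure. GI50 is the concentration that inhibits growth by half.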 The source made the active and inactive calls. Rule as the data show it: active = GI50 up to about 1.1 µM and inactive = higher.
Legend:
Assay in all cases: NCI-60 cell line screen, 48 h
OVCAR-3 = tested on: OVCAR-3
HOP-92 = tested on: HOP-92
NCI-H23 = tested on: NCI-H23
PC-3 = tested on: PC-3
Hs-578T = tested on: Hs-578T
OVCAR-8 = tested on: OVCAR-8
HCT-15 = tested on: HCT-15
UACC-62 = tested on: UACC-62
SF-268 = tested on: SF-268
SF-295 = tested on: SF-295
A498 = tested on: A498
U-251 = tested on: U-251
A549 = tested on: A549
UO-31 = tested on: UO-31
SF-539 = tested on: SF-539
SK-OV-3 = tested on: SK-OV-3
ACHN = tested on: ACHN
HL-60 = tested on: HL-60
HCC 2998 = tested on: HCC 2998

Compound	GI50 (OVCAR-3)	GI50 (HOP-92)	GI50 (NCI-H23)	GI50 (PC-3)	GI50 (Hs-578T)	GI50 (OVCAR-8)	GI50 (HCT-15)	GI50 (UACC-62)	GI50 (SF-268)	GI50 (SF-295)	GI50 (A498)	GI50 (U-251)	GI50 (A549)	GI50 (UO-31)	GI50 (SF-539)	GI50 (SK-OV-3)	GI50 (ACHN)	GI50 (HL-60)	GI50 (HCC 2998)
O=C(O)CCC(=O)c1ccc[nH]1	> 100 µM (inactive)	> 100 µM (inactive)	> 100 µM (inactive)	> 100 µM (inactive)	> 100 µM (inactive)	> 100 µM (inactive)	> 100 µM	> 100 µM (inactive)	> 100 µM (inactive)	> 100 µM (inactive)	> 100 µM (inactive)	> 100 µM (inactive)	> 100 µM (inactive)	> 100 µM (inactive)	> 100 µM (inactive)	> 100 µM (inactive)	> 100 µM (inactive)	–	–
NS(=O)(=O)c1cc(C(=O)O)c(O)c2ccccc12	> 100 µM (inactive)	> 100 µM (inactive)	> 100 µM (inactive)	> 100 µM (inactive)	49.7 µM (inactive)	> 100 µM (inactive)	> 100 µM	> 100 µM (inactive)	> 100 µM (inactive)	> 100 µM (inactive)	> 100 µM (inactive)	> 100 µM (inactive)	> 100 µM (inactive)	> 100 µM (inactive)	> 100 µM (inactive)	> 100 µM (inactive)	> 100 µM (inactive)	> 100 µM (inactive)	–
Nc1cccc(OCc2nc(N)nc(N)c2-c2ccc(Cl)cc2)c1	> 100 µM (inactive)	31.3 µM (inactive)	43.2 µM (inactive)	41.3 µM (inactive)	62.2 µM (inactive)	43.9 µM (inactive)	39.2 µM	62.2 µM (inactive)	60 µM (inactive)	64.1 µM (inactive)	39.4 µM (inactive)	64.9 µM (inactive)	35.8 µM (inactive)	36.3 µM (inactive)	–	89.1 µM (inactive)	44.3 µM (inactive)	23.8 µM (inactive)	–
COc1cccc(-c2cc(O)c3cc(N4CCCC4)ccc3n2)c1	< 0.001 µM (active)	0.00112 µM (active)	0.00279 µM (active)	< 0.001 µM (active)	< 0.001 µM (active)	< 0.001 µM (active)	0.00169 µM	< 0.001 µM (active)	< 0.001 µM (active)	< 0.001 µM (active)	–	< 0.001 µM (active)	< 0.001 µM (active)	< 0.001 µM (active)	< 0.001 µM (active)	< 0.001 µM (active)	0.00113 µM (active)	< 0.001 µM (active)	0.00206 µM (active)
Cc1cc2nc3c(C#N)c4c(c(-c5ccc(Cl)cc5)n3c2cc1C)CCC4	20.3 µM (inactive)	20.3 µM (inactive)	19.1 µM (inactive)	29.2 µM (inactive)	25.1 µM (inactive)	–	27.9 µM	18.4 µM (inactive)	24.3 µM (inactive)	17.2 µM (inactive)	28.1 µM (inactive)	28.8 µM (inactive)	34.5 µM (inactive)	19.9 µM (inactive)	29.2 µM (inactive)	18.2 µM (inactive)	24.2 µM (inactive)	21.4 µM (inactive)	–
CN(CCCNC(=O)c1cn(C)c2c1Cc1ccccc1-2)CCCNC(=O)c1cn(C)c2c1Cc1ccccc1-2	15.6 µM (inactive)	2.13 µM (inactive)	14.2 µM (inactive)	10.8 µM (inactive)	5.85 µM (inactive)	5.86 µM (inactive)	11.2 µM	13.8 µM (inactive)	5.14 µM (inactive)	12.3 µM (inactive)	11.9 µM (inactive)	7.43 µM (inactive)	15.8 µM (inactive)	9.16 µM (inactive)	13.8 µM (inactive)	16.5 µM (inactive)	10.5 µM (inactive)	13.3 µM (inactive)	–
O=C1N/C(=N/N=C/c2c[nH]c3ccccc23)N/C1=C\c1c[nH]c2ccccc12	14.7 µM (inactive)	16.8 µM (inactive)	18.2 µM (inactive)	15.7 µM (inactive)	18.7 µM (inactive)	15.8 µM (inactive)	23 µM	19.7 µM (inactive)	20.4 µM (inactive)	21.4 µM (inactive)	12.7 µM (inactive)	17.3 µM (inactive)	18.9 µM (inactive)	–	22.1 µM (inactive)	35.9 µM (inactive)	21.3 µM (inactive)	18.9 µM (inactive)	–
O=[N+]([O-])c1ccc(C(Nc2ccccc2)P(c2ccccc2)c2ccccc2)cc1 (stereo not given)	–	> 100 µM (inactive)	> 100 µM (inactive)	> 100 µM (inactive)	> 100 µM (inactive)	> 100 µM (inactive)	> 100 µM	> 100 µM (inactive)	> 100 µM (inactive)	44.7 µM (inactive)	> 100 µM (inactive)	> 100 µM (inactive)	> 100 µM (inactive)	> 100 µM (inactive)	> 100 µM (inactive)	> 100 µM (inactive)	> 100 µM (inactive)	> 100 µM (inactive)	–
COc1ccc2c(c1)C(=O)[C@@](Nc1ccc(C=O)cc1)(OC)[C@@](OC)(c1ccc([N+](=O)[O-])cc1)O2	> 10 µM (inactive)	–	> 10 µM (inactive)	8.53 µM (inactive)	> 10 µM (inactive)	> 10 µM (inactive)	> 10 µM	> 10 µM (inactive)	> 10 µM (inactive)	> 10 µM (inactive)	> 10 µM (inactive)	> 10 µM (inactive)	7.67 µM (inactive)	> 10 µM (inactive)	> 10 µM (inactive)	> 10 µM (inactive)	> 10 µM (inactive)	> 10 µM (inactive)	> 10 µM (inactive)
C/C(=N\NC(=S)N/N=C(\C)c1ccccn1)c1ccccn1	0.656 µM (active)	2.82 µM (inactive)	4.6 µM (inactive)	1.27 µM (inactive)	31.8 µM (inactive)	1.05 µM (active)	0.627 µM	1.71 µM (inactive)	0.817 µM (active)	1.57 µM (inactive)	6.03 µM (inactive)	0.771 µM (active)	2.18 µM (inactive)	0.809 µM (active)	0.979 µM (active)	1.31 µM (inactive)	1.27 µM (inactive)	> 100 µM (inactive)	–
C1=C(CC2=C[P+](c3ccccc3)(c3ccccc3)C=C(c3ccccc3)O2)OC(c2ccccc2)=C[P+]1(c1ccccc1)c1ccccc1	0.32 µM (active)	0.166 µM (active)	0.448 µM (active)	0.337 µM (active)	0.241 µM (active)	0.239 µM (active)	1.63 µM	–	0.362 µM (active)	0.566 µM (active)	0.716 µM (active)	0.269 µM (active)	0.494 µM (active)	1.56 µM (inactive)	0.362 µM (active)	0.367 µM (active)	0.644 µM (active)	0.188 µM (active)	–
Cc1cc2cc3cc(C)c(N)cc3nc2cc1N [ACRIDINE YELLOW]	0.522 µM (active)	0.726 µM (active)	0.794 µM (active)	1.06 µM (active)	1.75 µM (inactive)	0.518 µM (active)	0.597 µM	0.942 µM (active)	0.593 µM (active)	0.693 µM (active)	0.619 µM (active)	0.863 µM (active)	0.509 µM (active)	0.979 µM (active)	1.01 µM (active)	1.34 µM (inactive)	0.365 µM (active)	0.789 µM (active)	–
